In patent publication US10351519B2, “Sulfamate derivative compounds, processes for preparing them and their uses” (BIO-PHARM SOLUTIONS CO., LTD., priority 2016, dated 2019):

Columns and labels:
Assay type in all cases: in vivo
[1] = tested on: ICR mice; assay: Anti-epilepsy activity, MES test, mouse; settings: for responders at 100 mg/kg: po, read-out: MES test (po) efficacy %
Experimental: (§1) In the MES test (Ref., G. Villetti et al. Neuropharmacology 40 (2001) 866-878), an electrical stimulus (mice: 50 mA, 60 Hz, 0.2 sec, and rats: 150 mA, 60 Hz, 0.2 sec in the test animal) supplied by an 11A Shocker (IITC Life Science Company) was delivered through corneal electrodes. All mice or rats assigned to any electroshock at peak time were treated with each test compound sample which was dissolved in 30% PEG 400 or 20% tween 80 prepared by saline solvent applied orally before the test. […] Three doses of the test sample were administered orally to 9-18 animals (3-6 mice per dose) for evaluating the respective doses at which 50% of the animals were protected from seizure (ED50). The ED50 value (median effective dose) was calculated by Litchfield and Wicoxon log-probit method which is a dose-response relationship. Experimental animals, male ICR mice and male SD rats, were purchased from OrientBio, Samtako, or Nara Biotech, Korea, and housed in cages (4-5 mice or 3 rats per cage) for 4-5 days. The range of mice body weight was between 19 and 25 grams and range of rats body weight was between 100 and 130 grams.

[2] = tested on: Sprague-Dawley rats; assay: Lithium-pilocarpine induced epilepsy test, prevention; settings: i.p.
Experimental: Male Sprague-Dawley rats (purchased from Orient Bio Inc. Korea) of body weight 175-200 grams were used for these studies and 3 rats per cage were housed for 4-5 days. On the day prior to SE, rats received 127 mg/kg lithium chloride (Sigma, St. Louis, Mo., U.S.A.) intraperitoneally (i.p.). Approximately 18-20 h following this treatment, rats were given an i.p. injection of CD97 dose (30-43 mg/kg) pilocarpine (Sigma). An i.p. injection of 2 mg/kg methyl-scopolamine (Sigma) was administered 30 min prior to pilocarpine to block the effects of the muscarinic agonist on peripheral cholinergic receptors. Test drugs were dissolved in 30% PEG 400 or 20% tween80 (Sigma).
The drugs were administered intraperitoneally (i.p.) in a volume of 2 ul/g body weight. Pharmacological effects of all of the test materials were evaluated to compare test groups (n=6) with a control group (n=6). Control group was administered vehicle only. The efficacy was measured 0.5, 1, 2, or 4 hours after the administration of the test material. The time point that the most animals were protected was defined as peak time and the ED50 was determined at peak time. The animals were then transferred to observation cages and observed continuously for 90 min. Seizure was elicited in approximately 95% of the control group. Protection was defined as complete absence of seizure grade 3-5 (Racine scale; Racine, 1972) over the 90-min observation period. The effective dose of the compound necessary to protect 50% of the animals against seizures compared to controls (i.e. ED50) was determined by a curve fitting program (Excel 2007, Microsoft).

[3] = tested on: ICR mice; assay: Chemical induced seizure model (PIC, picrotoxin)
Experimental: Picrotoxin (PIC) were used to induce the behavioral seizures in the experiments. Male ICR mice (purchased from Orient Bio Inc. Korea) of body weight 19-26 g (mice) were used for these studies. The test materials were administered intraperitoneal (ip) route in a volume of 10 ul/g (mice) weight in mice, respectively. Pharmacological effects of the test materials were evaluated to compared test groups (n=6) with a control group (n=6). Control group was administrated vehicle, only. The peak time was determined by administration of test material's random dose for 0.5, 1, 2, 4 hour. The time that the most protect was defined as a peak time and ED50 was determined by other dose administration at the peak time. Chemical (PIC) was dissolved in 0.9% saline and administered subcutaneously (s.c.) at its CD97 (convulsive dose 97%), the dose of Chemical (PIC) that produced clonic seizures in 97% into a loose fold of skin in the midline of the neck in a volume of 10 ul/g (mice) body weight. The animals were then transferred to observation cages and observed continuously for 45 min (PIC). Clonic seizure was elicited in approximately 97% of control group. Protection was defined as a complete absence of clonic seizure over the 45-min observation period. The effective dose of compound necessary to protect against generalized convulsive seizures to 50% of controls (i.e. ED50) was determined by log probit analysis using SPSS software program (SPSS Inc.). (Reference; White H. S., J. H. Woodhead, K. S. Wilcox, J. P. Stables, H. J. Kupferberg, and H. H. Wolf. General Principles; Discovery and Preclinical De-velopment of Antiepileptic Drugs. In: R. H. Levy, R. H. Mattson, B. S. Meldrum, and E. Perucca, eds. Antiepileptic Drugs, 5th Ed. Lippincott Williams & Wilkins, Philadelphia 2002: pp. 36-48.) The obtained results are shown in following Table 10.

[4] = tested on: Sprague-Dawley rats; assay: Antiallodynic activity on Chung model (SNL, spinal nerve ligation); settings: orally
Text: Male Sprague-Dawley rats (100-130 g, Orient Bio, Korea) were habituated for 1 week before the experiment and allowed free access to food and water throughout the experimentation. Room temperature and humidity were maintained at 24±2 and 50±10%, respectively. The neuropathic surgery (SNL, Spinal nerve ligation) model was done as described in Kim and Chung (1992). Briefly, an animal was put under gaseous anesthesia with isoflurane. The left lumber spinal nerve L5 and L6 were isolated and tightly ligated with 6-0 silk thread. The wound muscle was closed with Catgut® chrom 3/0 thread and skin was closed with Dafilon 3/0 tread. Sham controls were prepared in the same manner with the spinal nerves exposed, but with no ligated L5 and L6 nerves. Preparation of the vehicle controls were identical to the group treated with compound, except for administration of vehicles without compound in the vehicle control group.
Tactile sensitivity (Mechanical allodynia) was evaluated using von Frey monofilaments before and after treatment, and animals were included in the study only if the withdrawal threshold value was less than 4 g. One week after surgery, SNL-operated animals, sham-operated animals and vehicle control animals were tested for tactile sensitivity with von Frey monofilaments 3 trials in each animal. All Animals were placed in a stainless steel mash chamber and habituated for 30 min in the test cage. The tactile sensitivity for the ipsilateral hind paw was measured using the up-and-down method (Dixon, 1980) with seven von Frey monofilaments (0.4, 1, 2, 4, 6, 8, and 15 g) in 3 trials. The tactile sensitivity test was followed by Dixon's method (Dixon, 1980). The 50% paw withdrawal threshold for each paw was calculated using the following formula: [Xth] log=[vFr] log+ky where [vFr] is the force of the last von Frey used, k=0.2249 which is the average interval (in log units) between the von Frey monofilaments, and y is a value that depends upon the pattern of withdrawal responses (Dixon, 1980).
All animals were fasted 18 h before the administration of the compounds. Antiallodynic effect of compounds were evaluated at the three dose, orally administrated in a volume of 5 ul/g, bw in a vehicle of 30% (v/v) PEG 400 or 20% (v/v) Tween 80. The test was performed at the peak time of efficacy after compound administration.
The relative values compared to the sham group (% control) were calculated and shown in Table 3, which show an antiallodynic effect of the test compounds on SNL model in rats.

[5] = tested on: Sprague-Dawley rats; assay: Antiallodynic activity on Complete Freund's Adjuvant (CFA)-induced inflammatory pain model; settings: intraperitoneally
Experimental: Male, Sprague-Dawley rats (210-250 g, Nara Bio, Korea) were habituated for 1 week before CFA injection and allowed free access to food and water throughout the experimentation. Room temperature and humidity were maintained at 24±2 and 50±10%, respectively.
CFA-induced inflammatory pain was induced by the procedure of Nagakura et al. (2003) and Gregory P. et al. (2010) with minor modifications. CFA (sigma, USA) was injected in the right plantar with a 100 ul volume under gaseous anesthesia with isoflurane. Sham controls were injected with 100 ul of saline and preparation of the vehicles without compound in the vehicle control group. Tactile sensitivity (Mechanical allodynia) was evaluated using von Frey monofilaments before and after treatment, and the animals were included in the study only if the withdrawal threshold value was less than 4 g. One week after surgery, CFA-infused treatment animals (n=4-6), sham-operated animals (n=12), and vehicle control animals (n=17) were tested for tactile sensitivity with von Frey monofilaments 3 trials for each animal. All Animals were placed in a stainless steel mesh chamber and habituated for 30 min in the test box. The tactile sensitivity for ipsilateral hind paw was measured using the up-and-down method (Dixon, 1980) with seven von Frey monofilaments (0.4, 1, 2, 4, 6, 8, and 15 g) to 3 trials. Tactile sensitivity test was followed by Dixon's method (Dixon, 1980). The 50% paw withdrawal threshold for each paw was calculated using the following formula: [Xth] log=[vFr] log+ky where [vFr] is the force of the last von Frey used, k=0.2249 which is the average interval (in log units) between the von Frey monofilaments, and y is a value that depends upon the pattern of withdrawal responses (Dixon, 1980).
Antiallodynic effect of compound was evaluated at the dose of 10-60 mg/kg (n=4-6), intraperitoneally administrated in a volume of 5 ul/g bw in a vehicle of 30% (v/v) PEG or 20% (v/v) Tween 80. The test was performed peak time of efficacy (0.5 or 1 hr) after compound administration.
The relative values compared to the sham (% control) were calculated and shown in Table 4, which show an antiallodynic effect of Compound 1 on CFA-induced pain model in rats.

[6] = tested on: SD rats; assay: Anti-epilepsy activity, MES test, rat
Experimental: as §1

C[C@@H](OS(N)(=O)=O)[C@H](O)c1cccc(Cl)c1Cl [Example 10, (1R, 2R)-1-(2,3-dichlorophenyl)-1-hydroxypropan-2-yl sulfamate]
MES test (po) Peak time [1]: 1 h | responders at 100 mg/kg [1]: 83.3% | Lithium pilocarpine model (pre) peak time [2]: 1 h | Lithium pilocarpine model (pre) efficacy % ([2]; 100 mg/kg): 66.6%

C[C@@H](OS(N)(=O)=O)[C@H](OS(N)(=O)=O)c1ccccc1Cl [Example 85]
MES test (po) Peak time [1]: 2 h | responders at 100 mg/kg [1]: 16.6% | PIC(ip) Peak Time [3]: 4 h | PIC(ip) efficacy % ([3]; 30 mg/kg): 30(33.3%)

COCO[C@@H](c1ccccc1Cl)[C@H](C)OS(N)(=O)=O [Example 69, (1S, 2S)-1-(2-chlorophenyl)-1-(methoxymethoxy)propan-2-yl sulfamate]
ED50 ([4]; Rattus norvegicus, po, at peak time): 48.2 mg/kg | SNL Peak Time [4]: 1 h | ED50 ([5]; Rattus norvegicus, ip, at peak time): 29.5 mg/kg | CFA-induced pain model Peak Time [5]: 0.5 h | MES test (po) Peak time [6]: 1 h | MES test (po) efficacy % ([6]; 20 mg/kg): 16.6% | Lithium pilocarpine model (pre) peak time [2]: 1 h | Lithium pilocarpine model (pre) efficacy % ([2]; 50 mg/kg): 33.3%
